Laboratory results as given in patent US20230248834A1, “DEGRADATION OF (EGFR) BY CONJUGATION OF EGFR INHIBITORS WITH E3 LIGASE LIGAND AND METHODS OF USE” (BEIGENE, LTD., priority 2020, published 2023).

How the values were obtained:
EGFR L858R/C797S = biological target: T1, EGFR L858R/C797S (Homo sapiens, UniProt P00533, C797S/L858R); experiment: EGFR degradation HTRF assay in BaF3 LC cells; assay type: cell-based; conditions: BaF3 LC (L858R/C797S), maximum percentage of inhibition (degradation); read-out: BaF3 LC Dmax (%)
T1 construct: expressed in transfected cells; host or cells: BaF3 LC
T1 sequence (P00533 25-1210 C797S/L858R): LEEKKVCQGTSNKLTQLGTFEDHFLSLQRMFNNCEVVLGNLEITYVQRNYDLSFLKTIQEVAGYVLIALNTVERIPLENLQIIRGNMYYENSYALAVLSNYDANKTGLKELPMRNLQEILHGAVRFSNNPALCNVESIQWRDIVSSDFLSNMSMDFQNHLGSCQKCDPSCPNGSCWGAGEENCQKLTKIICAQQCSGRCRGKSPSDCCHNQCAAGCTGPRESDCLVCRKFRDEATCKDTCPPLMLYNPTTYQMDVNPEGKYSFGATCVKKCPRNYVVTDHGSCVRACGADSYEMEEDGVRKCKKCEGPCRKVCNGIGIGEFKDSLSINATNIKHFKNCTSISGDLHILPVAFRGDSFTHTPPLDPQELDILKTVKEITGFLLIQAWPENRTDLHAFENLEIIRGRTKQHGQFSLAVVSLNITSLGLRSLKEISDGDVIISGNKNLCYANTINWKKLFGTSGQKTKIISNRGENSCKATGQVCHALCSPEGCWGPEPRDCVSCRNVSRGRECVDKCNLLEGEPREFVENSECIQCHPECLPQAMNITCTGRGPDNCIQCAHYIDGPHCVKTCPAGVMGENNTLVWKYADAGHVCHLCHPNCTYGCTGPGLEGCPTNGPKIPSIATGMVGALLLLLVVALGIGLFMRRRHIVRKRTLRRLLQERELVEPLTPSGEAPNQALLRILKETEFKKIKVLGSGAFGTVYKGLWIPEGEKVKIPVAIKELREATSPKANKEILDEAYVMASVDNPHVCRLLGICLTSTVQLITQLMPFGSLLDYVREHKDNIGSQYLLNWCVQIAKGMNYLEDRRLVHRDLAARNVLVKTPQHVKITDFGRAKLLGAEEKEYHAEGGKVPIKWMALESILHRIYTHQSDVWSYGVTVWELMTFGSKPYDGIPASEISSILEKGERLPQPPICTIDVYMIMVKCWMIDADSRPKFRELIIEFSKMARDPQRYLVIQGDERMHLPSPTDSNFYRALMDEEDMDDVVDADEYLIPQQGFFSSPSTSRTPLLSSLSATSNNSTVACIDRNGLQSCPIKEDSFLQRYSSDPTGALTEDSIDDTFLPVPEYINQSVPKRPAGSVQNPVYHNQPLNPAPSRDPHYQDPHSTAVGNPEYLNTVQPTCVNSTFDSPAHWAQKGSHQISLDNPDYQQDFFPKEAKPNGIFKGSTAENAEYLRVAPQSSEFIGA
Procedure: BaF3-LTC(L858R/T790M/C797S) cells and BaF3 LC(L858R/C797S) cells are treated with compounds diluted in 0.2% DMSO cell culture medium and incubate for 16 h, 37° C., 5% CO2. the final concentration of compounds in all assay is start with 10 uM, 5-fold dilution, total 8 doses were included.
After 16 h treatment, add HTRF lysis buffer to each well; seal the plate and incubate 1 hour at room temperature on a plate shaker; Once the cells are lysed, 16 μL of cell lysate are transferred to a PE 384-well HTRF detection plate; 4 μL of pre-mixed HTRF antibodies are added to each well; Cover the plate with a plate sealer, spin 1000 rpm for 1 min, Incubate overnight at room temperature; Read on BMG PheraStar with HTRF protocol (337 nm-665 nm-620 nm).
The inhibition (degradation) percentage of the compound was calculated by the following equation: Inhibition percentage of Compound=100−100×(Signal−low control)/(High control−low control), wherein signal=each test compound group
High control=Cell group with added DMSO and without compound, indicating microplate readings without EGFR degradation;
Dmax is the maximum percentage of inhibition (degradation).
The IC50 (DC50) value of a compound can be obtained by fitting the following equation
Y=Bottom+(TOP−Bottom)/(1+((IC50/X)^hillslope))
Wherein, X and Y are known values, and IC50, Hillslope, Top and Bottom are the parameters obtained by fitting with software. Y is the inhibition percentage (calculated from the equation), X is the concentration of the compound; IC50 is the concentration of the compound when the 50% inhibition is reached. The smaller the IC50 value is, the stronger the inhibitory ability of the compound is. Vice versa, the higher the IC50 value is, the weaker the inhibitory ability of the compound is; Hillslope represents the slope of the fitted curve, generally around 1*; Bottom represents the minimum value of the curve obtained by data fitting, which is generally 0%±20%; Top represents the maximum value of the curve obtained by data fitting, which is generally 100%±20%. The experimental data were fitted by calculating and analyzing with Dotmatics data analysis software.

EGFR L858R/T790M/C797S = biological target: T2, EGFR L858R/T790M/C797S (Homo sapiens, UniProt P00533, C797S/L858R/T790M); experiment: EGFR degradation HTRF assay in BaF3-LTC cells; assay type: cell-based; conditions: BaF3-LTC (L858R/T790M/C797S), maximum percentage of inhibition (degradation); read-out: BaF3-LTC Dmax (%)
T2 construct: expressed in transfected cells; host or cells: BaF3-LTC
T2 sequence (P00533 25-1210 T790M/C797S/L858R): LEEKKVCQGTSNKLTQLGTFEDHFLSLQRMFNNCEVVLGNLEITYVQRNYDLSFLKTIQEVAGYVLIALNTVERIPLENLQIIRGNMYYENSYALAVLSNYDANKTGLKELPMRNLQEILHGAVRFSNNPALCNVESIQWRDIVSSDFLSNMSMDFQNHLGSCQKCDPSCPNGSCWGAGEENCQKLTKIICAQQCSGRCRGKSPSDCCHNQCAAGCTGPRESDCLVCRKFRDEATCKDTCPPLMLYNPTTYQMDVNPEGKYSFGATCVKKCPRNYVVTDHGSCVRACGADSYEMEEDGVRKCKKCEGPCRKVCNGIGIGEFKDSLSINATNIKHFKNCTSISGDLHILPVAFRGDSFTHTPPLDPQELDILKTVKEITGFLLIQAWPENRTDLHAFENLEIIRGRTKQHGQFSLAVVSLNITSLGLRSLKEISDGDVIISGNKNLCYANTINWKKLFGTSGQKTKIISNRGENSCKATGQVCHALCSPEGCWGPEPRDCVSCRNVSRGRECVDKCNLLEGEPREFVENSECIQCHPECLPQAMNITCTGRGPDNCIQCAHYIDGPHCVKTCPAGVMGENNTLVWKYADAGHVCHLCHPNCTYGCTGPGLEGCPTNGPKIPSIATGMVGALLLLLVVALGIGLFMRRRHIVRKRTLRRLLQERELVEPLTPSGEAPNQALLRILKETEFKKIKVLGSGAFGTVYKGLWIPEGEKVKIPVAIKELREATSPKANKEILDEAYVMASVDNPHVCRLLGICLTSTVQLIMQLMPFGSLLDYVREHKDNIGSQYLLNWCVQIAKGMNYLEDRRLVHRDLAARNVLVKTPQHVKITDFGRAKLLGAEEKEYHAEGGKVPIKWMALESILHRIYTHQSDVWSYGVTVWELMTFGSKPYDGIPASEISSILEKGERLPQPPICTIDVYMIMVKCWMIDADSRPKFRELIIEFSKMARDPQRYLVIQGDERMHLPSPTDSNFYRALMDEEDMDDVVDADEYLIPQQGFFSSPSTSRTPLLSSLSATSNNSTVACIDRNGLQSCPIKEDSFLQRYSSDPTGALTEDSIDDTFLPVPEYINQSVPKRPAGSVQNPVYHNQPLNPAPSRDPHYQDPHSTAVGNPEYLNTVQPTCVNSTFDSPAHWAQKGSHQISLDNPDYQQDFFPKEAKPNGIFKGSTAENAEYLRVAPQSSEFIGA
Method in brief: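 BaF3 cells expressing EGFR L858R/C797S or L858R/T790M/C797S treated 16 h at 37 °C with compounds (top 10 uM, 5-fold, 8 doses; 0.2% DMSO). Remaining EGFR quantified by HTRF in lysates after overnight antibody incubation. Degradation percentage versus DMSO controls; DC50 from four-parameter fit, Dmax as maximal degradation.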

CCOc1cc(N2CCC(N3CCN(CCc4cccc5c4n(CC)c(=O)n5C4CCC(=O)NC4=O)CC3)CC2)c(CC)cc1Nc1ncc(Br)c(Nc2ccc3nc(CC)ccc3c2P(C)(C)=O)n1 (centres unmarked) [Example 504, 3-(4-(2-(4-(1-(4-((5-bromo-4-((5-(dimethylphosphoryl)-2-ethylquinolin-6-yl)amino)pyrimidin-2-yl)amino)-5-ethoxy-2-ethylphenyl)piperidin-4-yl)piperazin-1-yl)ethyl)-3-ethyl-2-oxo-2,3-dihydro-1H-benzo[d]imidazol-1-yl)piperidine-2,6-dione]
Dmax (EGFR L858R/C797S): 86% | Dmax (EGFR L858R/T790M/C797S): 89%

CCOc1cc(N2CCC(N3CCN(CCc4ccc(F)c5c4oc(=O)n5C4CCC(=O)NC4=O)CC3)CC2)c(CC)cc1Nc1ncc(Br)c(Nc2ccc3nc(CC)ccc3c2P(C)(C)=O)n1 (centres unmarked) [Example 505, 3-(7-(2-(4-(1-(4-((5-bromo-4-((5-(dimethylphosphoryl)-2-ethylquinolin-6-yl)amino)pyrimidin-2-yl)amino)-5-ethoxy-2-ethylphenyl)piperidin-4-yl)piperazin-1-yl)ethyl)-4-fluoro-2-oxobenzo[d]oxazol-3(2H)-yl)piperidine-2,6-dione]
Dmax (EGFR L858R/C797S): 83.2% | Dmax (EGFR L858R/T790M/C797S): 75.1%

CCc1ncc2c(P(C)(C)=O)c(Nc3nc(Nc4cc(CC)c(N5CCC(N6CCN(C(=O)[C@@H]7CCN(c8cc(F)c([C@H]9CCC(=O)NC9=O)c(F)c8)C7)CC6)CC5)cc4OC)ncc3Br)ccc2n1 [Example 549, (R)-3-(4-((R)-3-(4-(1-(4-((5-bromo-4-((5-(dimethylphosphoryl)-2-ethylquinazolin-6-yl)amino)pyrimidin-2-yl)amino)-2-ethyl-5-methoxyphenyl)piperidin-4-yl)piperazine-1-carbonyl)pyrrolidin-1-yl)-2,6-difluorophenyl)piperidine-2,6-dione]
Dmax (EGFR L858R/C797S): 87.2% | Dmax (EGFR L858R/T790M/C797S): 90.4%

CCOc1cc(N2CCC(N3CCN(CC4CN(c5cc(F)c([C@H]6CCC(=O)NC6=O)c(F)c5)C4)CC3)CC2)c(CC)cc1Nc1ncc(Br)c(Nc2ccc3c(=O)n(CC)ncc3c2P(C)(C)=O)n1 [Example 551, (R)-3-(4-(3-((4-(1-(4-((5-bromo-4-((5-(dimethylphosphoryl)-2-ethyl-1-oxo-1,2-dihydrophthalazin-6-yl)amino)pyrimidin-2-yl)amino)-5-ethoxy-2-ethylphenyl)piperidin-4-yl)piperazin-1-yl)methyl)azetidin-1-yl)-2,6-difluorophenyl)piperidine-2,6-dione]
Dmax (EGFR L858R/C797S): 86.8% | Dmax (EGFR L858R/T790M/C797S): 89.7%

CCOc1cc(N2CCC(N3CCN(CCc4c(F)ccc5c4n(CC)c(=O)n5C4CCC(=O)NC4=O)CC3)CC2)c(CC)cc1Nc1ncc(Br)c(Nc2ccc3c(=O)n(CC)ncc3c2P(C)(C)=O)n1 (centres unmarked) [Example 559, 3-(4-(2-(4-(1-(4-((5-bromo-4-((5-(dimethylphosphoryl)-2-ethyl-1-oxo-1,2-dihydrophthalazin-6-yl)amino)pyrimidin-2-yl)amino)-5-ethoxy-2-ethylphenyl)piperidin-4-yl)piperazin-1-yl)ethyl)-3-ethyl-5-fluoro-2-oxo-2,3-dihydro-1H-benzo[d]imidazol-1-yl)piperidine-2,6-dione]
Dmax (EGFR L858R/C797S): 90.4% | Dmax (EGFR L858R/T790M/C797S): 92.4%

CCOc1cc(N2CCC(N3CCN(CCc4cccc5c4C4(CC4)C(=O)N5C4CCC(=O)NC4=O)CC3)CC2)c(CC)cc1Nc1ncc(Br)c(Nc2ccc3nc(CC)ccc3c2P(C)(C)=O)n1 (centres unmarked) [Example 571, 3-(4′-(2-(4-(1-(4-((5-bromo-4-((5-(dimethylphosphoryl)-2-ethylquinolin-6-yl)amino)pyrimidin-2-yl)amino)-5-ethoxy-2-ethylphenyl)piperidin-4-yl)piperazin-1-yl)ethyl)-2′-oxospiro[cyclopropane-1,3′-indolin]-1′-yl)piperidine-2,6-dione]
Dmax (EGFR L858R/C797S): 87.7% | Dmax (EGFR L858R/T790M/C797S): 93.2%

CCOc1cc(N2CCC(N3CCN(CCc4cccc5c4C(C)(C)C(=O)N5C4CCC(=O)NC4=O)CC3)CC2)c(CC)cc1Nc1ncc(Br)c(Nc2ccc3nc(CC)ccc3c2P(C)(C)=O)n1 (centres unmarked) [Example 572, 3-(4-(2-(4-(1-(4-((5-bromo-4-((5-(dimethylphosphoryl)-2-ethylquinolin-6-yl)amino)pyrimidin-2-yl)amino)-5-ethoxy-2-ethylphenyl)piperidin-4-yl)piperazin-1-yl)ethyl)-3,3-dimethyl-2-oxoindolin-1-yl)piperidine-2,6-dione]
Dmax (EGFR L858R/C797S): 91.8% | Dmax (EGFR L858R/T790M/C797S): 90.3%

CCc1cc(Nc2ncc(Br)c(Nc3ccc4nc(C)c(F)cc4c3P(C)(C)=O)n2)c(OC)cc1N1CCC(N2CCN(C(=O)[C@H]3CN(c4cc(F)c([C@H]5CCC(=O)NC5=O)c(F)c4)CC3(C)C)CC2)CC1 [Example 576, (R)-3-(4-((R)-4-(4-(1-(4-((5-bromo-4-((5-(dimethylphosphoryl)-3-fluoro-2-methylquinolin-6-yl)amino)pyrimidin-2-yl)amino)-2-ethyl-5-methoxyphenyl)piperidin-4-yl)piperazine-1-carbonyl)-3,3-dimethylpyrrolidin-1-yl)-2,6-difluorophenyl)piperidine-2,6-dione]
Dmax (EGFR L858R/C797S): 95.9% | Dmax (EGFR L858R/T790M/C797S): 92.2%

CCOc1cc(N2CCC(N3CCN(C(=O)[C@@H]4CCN(c5cc(F)c([C@H]6CCC(=O)NC6=O)c(F)c5)C4)CC3)CC2)c(CC)cc1Nc1ncc(Br)c(Nc2ccc3nc(C)c(F)cc3c2P(C)(C)=O)n1 [Example 577, (R)-3-(4-((R)-3-(4-(1-(4-((5-bromo-4-((5-(dimethylphosphoryl)-3-fluoro-2-methylquinolin-6-yl)amino)pyrimidin-2-yl)amino)-5-ethoxy-2-ethylphenyl)piperidin-4-yl)piperazine-1-carbonyl)pyrrolidin-1-yl)-2,6-difluorophenyl)piperidine-2,6-dione]
Dmax (EGFR L858R/C797S): 89.1% | Dmax (EGFR L858R/T790M/C797S): 88.6%

CCc1ccc2c(P(C)(C)=O)c(Nc3nc(Nc4cc(C)c(N5CCC(N6CCN(CCc7cccc8c7n(C)c(=O)n8C7CCC(=O)NC7=O)CC6)CC5)cc4OC4CC4)ncc3Br)ccc2n1 (centres unmarked) [Example 584, 3-(4-(2-(4-(1-(4-((5-bromo-4-((5-(dimethylphosphoryl)-2-ethylquinolin-6-yl)amino)pyrimidin-2-yl)amino)-5-cyclopropoxy-2-methylphenyl)piperidin-4-yl)piperazin-1-yl)ethyl)-3-methyl-2-oxo-2,3-dihydro-1H-benzo[d]imidazol-1-yl)piperidine-2,6-dione]
Dmax (EGFR L858R/C797S): 92.8% | Dmax (EGFR L858R/T790M/C797S): 95.6%

CCc1ncc2c(P(C)(C)=O)c(Nc3nc(Nc4cc(CC)c(N5CCC(N6CCN(CCc7cc(F)c([C@H]8CCC(=O)NC8=O)c(F)c7)CC6)CC5)cc4OC)ncc3Br)ccc2n1 [Example 589, (R)-3-(4-(2-(4-(1-(4-((5-bromo-4-((5-(dimethylphosphoryl)-2-ethylquinazolin-6-yl)amino)pyrimidin-2-yl)amino)-2-ethyl-5-methoxyphenyl)piperidin-4-yl)piperazin-1-yl)ethyl)-2,6-difluorophenyl)piperidine-2,6-dione]
Dmax (EGFR L858R/C797S): 92.4% | Dmax (EGFR L858R/T790M/C797S): 85.9%

CCOc1cc(N2CCC(N3CCN(CCc4cccc5c4n(CC)c(=O)n5C4CCC(=O)NC4=O)CC3)CC2)c(CC)cc1Nc1ncc(Br)c(Nc2cc(F)c3nc(CC)ccc3c2P(C)(C)=O)n1 (centres unmarked) [Example 643, 3-(4-(2-(4-(1-(4-((5-bromo-4-((5-(dimethylphosphoryl)-2-ethyl-8-fluoroquinolin-6-yl)amino)pyrimidin-2-yl)amino)-5-ethoxy-2-ethylphenyl)piperidin-4-yl)piperazin-1-yl)ethyl)-3-ethyl-2-oxo-2,3-dihydro-1H-benzo[d]imidazol-1-yl)piperidine-2,6-dione]
Dmax (EGFR L858R/C797S): 94.1% | Dmax (EGFR L858R/T790M/C797S): 91.2%

CCc1cc(Nc2ncc(Br)c(Nc3ccc4nc(C)ccc4c3P(C)(C)=O)n2)c(OC)cc1N1CCC(N2CCN(C(=O)[C@@H]3CCN(c4cc(F)c([C@H]5CCC(=O)NC5=O)c(F)c4)C3)CC2)CC1 [Example 750, (R)-3-(4-((R)-3-(4-(1-(4-((5-bromo-4-((5-(dimethylphosphoryl)-2-methylquinolin-6-yl)amino)pyrimidin-2-yl)amino)-2-ethyl-5-methoxyphenyl)piperidin-4-yl)piperazine-1-carbonyl)pyrrolidin-1-yl)-2,6-difluorophenyl)piperidine-2,6-dione]
Dmax (EGFR L858R/C797S): 94.3% | Dmax (EGFR L858R/T790M/C797S): 95.4%
